According to patent EP2943187B1, “USE OF GLYCYL GLUTAMINE AGAINST DEPRESSION” (Uludag Universitesi Teknoloji Transfer Ofisi Ticaret ve …, priority 2013, dated 2014):
Peptide text beside a SMILES is read from it.

How the values were obtained:
[1] = Storage stability; format: physicochemical
Experimental: After, it is diluted by saline; it can be stored in a refrigerator at +4°C between 24-48 hours. It can be stored in room temperature for 10-12 hours.

[2] = system: serotonin output at the nucleus accumbency section of the brain; assay: Brain micro-dialysis, serotonin output; format: in vivo, rats; settings: single intracerebroventricular 100 nmol dose, 2 hours of monitoring, versus saline; p<0.001
Experimental: The source of the antidepressant effects of Gly-Gln, which is mentioned in the figure descriptions above, have been analyzed and shown in Figures 4 and 5. In Figures 4 and 5; the effect of Gly-Gln on the serotonin output at the nucleus accumbency section of the brain upon intracerebroventricular Gly-Gln injection can be seen. […] An increase in serotonin outputs can be observed in all time intervals throughout 2 hours of monitoring period following the Gly-Gln injection; however, no serotonin output could be observed from the rodents in the control group who had been administered saline injections by the same way. Serotonin, which is structurally a monoamine neurotransmitter, is a hormone, which makes people feel happy, energetic and lively. When, the subject matter hormone serotonin is deficient in people, they feel depressive, tired and boring. […] Furthermore, the word "Saline" indicated in Figure 4 and 5 means salty water. It is used for comparing with the tested medication by administering on the control group.

[3] = system: GABA levels in the brain; assay: GABA levels in the brain after administration (unpublished data); format: in vivo; settings: Gly-Gln administration; unpublished data from applicant's laboratory
Excerpt: This innovation is related with the use of glycyl-glutamine in the treatment and/or prophylaxis of depression disorder and/or anxiety, which meets all above-mentioned requirements, eliminates all disadvantages and provides some advantages. The purpose of the current invention is to use Glycyl-Glutamine (Gly-Gln) in the treatment and/or prophylaxis of depression and/or anxiety via its effects in the brain other than its metabolic products' (glycine and glutamine) separate effects. […] Glutamine exerts antidepressant effects by increasing gamma-aminobutyric acid (GABA) in the brain however Gly-Gln generates antidepressant effects by increasing serotonin levels in the brain.

[4] = system: rodents; assay: Forced Swimming Test; format: in vivo, rats; settings: intracerebroventricular, 100 nmol/10 µl, n=12
Excerpt: It has been proven as a result of the tests performed on animals that Glycyl-glutamine is therapeutic on depression and anxiety disorders. These aforementioned studies have been performed by means of "the Forced Swimming Test" method, which is the most applied animal model, used in antidepressant treatment surveys. The forced swimming test had been developed by Porsolt et al., (1978) and it is the most applied animal model in depression surveys especially the antidepressant treatment surveys. […] After the same animal is placed in the same tank twenty-four hours after the first time, it is observed that the time passes until inactivity reduces. Inactivity is expressed as losing behaviors of trying to escape in other words "behavioral helplessness". The forced swimming test is a similar response to learned helplessness. The efforts spent for an escape comes to an end for the animal, which understands it is exposed to a stress it will not be able to escape. Thus, it can be understood by that test model whether the antidepressant medications, which are administered before the second administration, show antidepressant effects or not. In practice, the post-treatment behaviors of the animal change for reducing behavioral helplessness. The time passed until inactivity is extended by means of acute or short-term antidepressant treatments and total time of inactivity is decreased. […] Because, it is an easy to apply practice, this model is used extensively (Cryan et al., 2002).
In Figure 1, the effect of intracerebroventricular Gly-Gln injection on the first term of inactivity. When, Gly-Gln has been administered centrally, it has extended the time passed until first inactivity compared to the control animals. While, the time passed until first inactivity of the rodents which have been centrally administered saline (10 µl) has been 14,9 ± 2,8 seconds (n=14), the time passed until first inactivity of the rodent which have been applied Gly-Gln (100 nmol/10 µl) by that same way has been increased to 28,1 ± 6,1 seconds (n=12), (p<0,05).
In Figure 2, the effect of intracerebroventricular Gly-Gln injection on the total term of inactivity. When, Gly-Gln has been administered centrally, it has reduced the total time time of inactivity compared to the control animals. While, the total inactivity time of the rodents which have been centrally administered saline (10 µl) has been 229.4 ± 8.9 seconds (n=14), the time passed until first inactivity of the rodent which have been applied Gly-Gln (100 nmol/10 µl) by the same way has been increased to 172.5 ± 12.8 seconds (n=12), (p<0,001).
In Figure 3, the effect of intracerebroventricular Gly-Gln injection on the escalation and swimming times. […]

With NCC(=O)N[C@@H](CCC(N)=O)C(=O)O [Gly-Gln, glycyl-glutamine] (H-Gly-Gln-OH) the “storage time, diluted by saline” value ([1]; refrigerator at +4°C) was 24 to 48 h, the “storage time, non-diluted form” value ([1]; refrigerator at -20°C) was “very long period of time” and the “storage time, diluted by saline” value ([1]; room temperature) was 10 to 12 h. For the same compound, the “serotonin output at the nucleus accumbency section of the brain” value [2] was “extremely increased”, the “GABA levels in the brain” value [3] was “decrease” and the “time passed until first inactivity” value ([4]; saline control 14,9 ± 2,8 seconds (n=14), p<0,05) was 28,1 ± 6,1 seconds. The swimming time ([4]; saline control 26,7 ± 2,9 seconds (n=14), p>0.05) was 36,8 ± 4,3 seconds, the escalation time ([4]; saline control 43,9 ± 7,0 seconds (n=14)) was 90,8 ± 11,4 seconds and the total inactivity time ([4]; saline control 229.4 ± 8.9 seconds (n=14), p<0,001) was 172.5 ± 12.8 s.
